{"source": "patent US20250387369A1", "about": "(priority 2022, published 2025)", "assay_type_in_all_cases": "cell-based", "key": {"[1]": {"tested_on": "SARS-COV-2 (a prototype having D614G mutation)"}, "[2]": {"tested_on": "SARS-COV-2 (a prototype having D614G mutation)", "remark": "listed apart in the source"}, "[3]": {"tested_on": "SARS-COV-2 Omicron mutant BA.1 strain"}, "[4]": {"tested_on": "SARS-COV-2 Omicron mutant BA.2 strain"}}, "note": "Read-outs that look alike come from different tables or passages of the source."}
{"smiles": "CC(C)(C)OC(=O)NCCCCCCC(C)(C(=O)O)c1c[nH]c2ccccc12", "note": "(centres unmarked) [Compound #13]", "values": [{"measurement": "IC50", "setting": "[1]", "value": 1.1, "unit": "µM"}]}
{"smiles": "COc1cc(COc2ccc3[nH]cc(CC(=O)O)c3c2)cc(OC)c1", "note": "[Compound #35]", "values": [{"measurement": "IC50", "setting": "[1]", "value": 15.4, "unit": "µM"}]}
{"smiles": "CC(C)C(=O)OC[C@H]1O[C@@H](n2ccc(NO)nc2=O)[C@H](O)[C@@H]1O", "note": "[Molnupiravir]", "values": [{"measurement": "IC50", "setting": "[2]", "value": 4.2, "unit": "µM"}, {"measurement": "IC50", "setting": "[3]", "value": 4, "unit": "µM"}, {"measurement": "IC50", "setting": "[4]", "value": 2800, "unit": "nM"}]}
